The test concerns CEM cells HIV-1 protection, formazan growth assay. Briefly: NCI AIDS Antiviral Assay. Particulars: for IC50: measured here: growth of uninfected CEM cells. In short, it runs like this: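 Human CEM cells, uninfected and HIV-1-infected, exposed to five drug concentrations; growth measured by soluble formazan assay and scored as percent protection from infection, with protecting compounds retested.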

Structures are written as SMILES. Activity calls are given as the source filed them.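 The calls were made as follows: active = compounds giving half or more protection of infected cells from virus-caused growth loss, again on retest; inactive = the rest.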 Where a SMILES comes first, the peptide text is derived from it.

Broadly, the EC50 is the midpoint of the concentration-response curve. One may read the IC50 as the point on the concentration scale where inhibition reaches its midpoint. As for `COc1cc2cccc(N=Cc3cccc(OC)c3OC(C)C)c2cc1OC`, the EC50 is more than 13.2 µM and the IC50 is more than 13.2 µM.

Regarding `O=C(O)CCCCCCCCCCCOc1ccccc1`, the EC50 was more than 200 µM and the IC50 was 63.1 µM.

Take `COC(=O)C(Cc1ccccc1)OC(=O)C(N)CC(=O)O` (centres undefined): the EC50 is more than 200 µM and the IC50 was more than 200 µM.

For the molecule `COc1ccc(/C=C/C(=N/NC(=O)N/N=C(/C=C/c2ccc(OC)cc2)C(C)C)C(C)C)cc1`, the EC50 is more than 200 µM and the IC50 came to 37.2 µM.

For `O=C(Nc1ccccc1)OCCN=C1c2ccccc2C(Br)C(Br)c2ccccc21` (centres undefined), the EC50 was more than 200 µM and the half-inhibitory concentration (IC50) is 0.794 µM.

With `CCOC(=O)CSc1[nH]c(NC(=S)Nc2ccccc2)c(C(N)=O)c1C(N)=O`, the EC50 is more than 200 µM and the IC50 worked out at 97.7 µM.

Turning to `C=CCn1c(=S)sc2c(C(=O)OCC)c3c(C)cc(C)cn3c2c1=O`, the EC50 was more than 3.89 µM and the IC50 was more than 3.89 µM.

Consider `CC1NC(=O)C(C)C(c2ccccc2)N(N=O)C1c1ccccc1` (centres undefined), for which the EC50 is more than 209 µM and the IC50 came to 186 µM.

As to `CC(C)(C)C1=C(Br)C(C(C)(C)C)OP1(=O)O` (centres undefined), the EC50 is more than 100 µM and the IC50 is more than 100 µM.

For `NC(=O)C(=Cn1c(=S)[nH]c2ccc([N+](=O)[O-])cc21)C(N)=O`, the EC50 was more than 200 µM and the IC50 was more than 200 µM.

On to `CC(CC(=O)O)C(N)C(=O)O` (centres undefined), for which the EC50 was more than 200 µM and the IC50 is more than 200 µM.

Regarding `Cc1cc(N)c2cc(NC(=O)CCCCCCCCC(=O)Nc3ccc4nc(C)cc(N)c4c3)ccc2n1`, the result was inactive.

As to `N/C(=N\N=C(/N)C(F)(F)F)C(F)(F)F`, the EC50 was more than 200 µM and the half-maximal inhibitory concentration (IC50) is more than 200 µM.

Regarding `CCC(C)C(NC(=O)C(CCCN=C(N)N)NC(=O)C(CC(N)=O)NC(=O)C(Cc1cnc[nH]1)NC(=O)C(N)CC(C)C)C(=O)NC(C(=O)NC(CC(C)C)C(=O)NC(C(=O)NC(Cc1cnc[nH]1)C(=O)O)C(C)O)C(C)CC` (centres undefined) (H-LHNRIILTH-OH; configuration not given here), the EC50 was more than 44.7 µM and the IC50 was more than 44.7 µM.

For `COc1cc2c(c(O)c1OC)C(=O)C1CCC(=O)N1C2c1cccc2ccccc12` (centres undefined), the EC50 was more than 200 µM and the IC50 turned out to be 31.6 µM.

As for `O=C(Nc1ccccc1)c1cc(C(=O)Nc2ccccc2)[nH]n1`, the result was inactive.

For the molecule `O=C1C2CC=CCC2C(=O)N1n1c(Cc2ccccc2)n[nH]c1=O` (centres undefined), the EC50 is more than 200 µM and the IC50 was more than 200 µM.

Regarding `COc1ccc(C2OC(=O)c3c2ccc2ccccc32)c(C)c1` (centres undefined), the EC50 was more than 44.7 µM and the IC50 came to 27.5 µM.

On to `SC1N=C(c2ccco2)N2C(S)N=C(c3ccccc3)N12` (centres undefined), for which the EC50 was more than 200 µM and the IC50 turned out to be 182 µM.

As for `C#CCN(CCC)C(=O)COc1cc2c(O)c3c(O)c(C)c4c(c13)C(=O)C(C)(O/C=C/C(OC)C(C)C(OC(C)=O)C(C)C(O)C(C)C(O)C(C)/C=C/C=C(\C)C(=O)N2)O4` (centres undefined), the EC50 was more than 200 µM and the IC50 was 39.8 µM.

For `CC#CC(O)(C(=O)OC1CCCN(C)C1)C1=CC=CCC1` (centres undefined), the EC50 is more than 200 µM and the IC50 was more than 200 µM.

As for `CCC(CCN)(CCN)[N+](=O)[O-]`, the EC50 was more than 200 µM and the IC50 was more than 200 µM.

`Cc1ns/c(=N\C(=S)N(C)C)n1C`: the outcome was inactive.

On to `CC(C)c1ccc2c(c1)C=C1OC(=O)[C@]3(C)CCC[C@@]2(C)C13` (some centres undefined), for which the EC50 is more than 200 µM and the IC50 came to 115 µM.

For the molecule `Cc1ccc([P+](Cc2ccccc2)(c2ccccc2)c2cccc3ccccc23)cc1` (centres undefined), the EC50 is more than 200 µM and the IC50 was found to be 0.55 µM.

As to `O=C1NC(N/N=C\C(O)C(O)C(O)C(O)CO)=N/C1=C\c1ccc(Cl)cc1` (centres undefined), the EC50 was more than 200 µM and the IC50 was 33.9 µM.

Take `O=C(CCc1ccccc1)ON1C(=S)C(c2ccccc2)(c2ccccc2)N=C1Sc1ccccc1`: the EC50 is more than 200 µM and the IC50 stood at 25.7 µM.

Consider `CCOC(=O)c1sc2c(c1OC(=O)c1ccc(Cl)cc1Cl)c(=O)n(-c1ccccc1)c(=S)n2-c1ccccc1`, for which the EC50 is more than 200 µM and the IC50 worked out at 0.0871 µM.

As to `CCOC(=O)C1CC=CC(NC(=O)OC(C)(C)C)C1(c1ccccc1)[N+](=O)[O-]` (centres undefined), the outcome was inactive.

On to `O=CC[C@@]12CC(=O)OC(C1)[C@@H](I)CC21OCCO1`, for which the EC50 was more than 200 µM and the IC50 is more than 200 µM.

Regarding `N#Cc1[nH]c(=O)n(-c2ccc([N+](=O)[O-])cc2)c1N`, the EC50 was more than 200 µM and the IC50 is more than 200 µM.

On to `CC1(C)O[C@@H]2COC(=O)[C@@H]2O1`, for which the EC50 is more than 200 µM and the IC50 was more than 200 µM.

On to `O=C(CSc1nc2ccccc2c(=O)n1-c1ccccc1)N=Nc1c(O)[nH]c2ccc(Br)cc12`, for which the concentration giving a half-maximal response (EC50) is 61.7 µM and the IC50 was found to be 85.1 µM.

In the case of `CC(=N)N(C)O`, the EC50 is more than 2000 µM and the IC50 is more than 2000 µM.

Take `OC(c1ccccn1)C1CNc2ccccc21` (centres undefined): the outcome was inactive.

With `Cc1ccc2cccc3c2c1CC1(C3=O)S(=O)(=O)OCCOS1(=O)=O`, the EC50 is more than 200 µM and the IC50 is more than 200 µM.

With `CC1CC[Si](C)(C)CC12C(=O)NC(=O)NC2=O` (centres undefined), the EC50 is more than 200 µM and the IC50 is more than 200 µM.

For `O=C(CN1CCN(Cc2ccccc2)CC1)N1CCCn2c1nc1ccccc1c2=O`, the EC50 is more than 200 µM and the IC50 is more than 200 µM.

`Clc1ccc(CNc2nc(Cl)c3[nH]cnc3n2)cc1Cl`: the EC50 is more than 200 µM and the half-inhibitory concentration (IC50) is 22.9 µM.

As for `O=C(O)CCC1c2[nH]c3ccccc3c2CCN1Cc1ccccc1` (centres undefined), the outcome was inactive.

Consider `CN(c1ccc(Cl)cc1)S(=O)(=O)c1cccc([N+](=O)[O-])c1`, for which the EC50 is more than 200 µM.

`Nc1nc(-c2ccccc2)nc2oc(-c3cccs3)nc12`: the EC50 is more than 200 µM and the IC50 is more than 200 µM.

Take `CC(=O)Oc1ccc2c(c1)O/C(=C\c1ccc(O)cc1)C2=O`: the EC50 is more than 200 µM and the IC50 came out at 138 µM.

Take `O=C1c2c(O)ccc([N+](=O)[O-])c2C(=O)c2c(O)ccc(Nc3cccc(CO)c3)c21`: the EC50 is more than 200 µM and the IC50 is 0.724 µM.

Consider `CNC(=O)c1ccccc1[Se][Se]c1ccccc1C(=O)NC`, for which the EC50 was 3.55 µM and the IC50 was 11 µM.

Turning to `O=C(Cn1c(=O)ccn(C2OC(CO)C(O)C2F)c1=O)c1ccc(F)cc1` (centres undefined), the EC50 is more than 200 µM and the IC50 is more than 200 µM.

Regarding `CNc1nc(SC)n(C)c(=O)c1N=O`, the result was inactive.

Consider `Nc1nc(Nc2ccccc2)sc1O`, for which the EC50 is more than 200 µM and the IC50 stood at 195 µM.

Regarding `CN(C)c1ccc(/C=C(\C#N)c2c(Br)cccc2Br)cc1`, the EC50 is more than 200 µM and the IC50 was determined as 4.17 µM.

With `CCCCCCOC(=O)Nc1nnc(SSC2=NN=CC2NC(=O)OCCCCCC)s1` (centres undefined), the EC50 was more than 200 µM and the IC50 was found to be 19.5 µM.

With `O=C1/C(=C/c2ccc(Br)s2)NC(=S)N1CN1CCCCC1`, the EC50 is more than 200 µM and the IC50 worked out at 38 µM.

Consider `Brc1ccc(N2N=NC3CN(c4ccccc4)CC32)cc1` (centres undefined), for which the EC50 is more than 100 µM and the IC50 was determined as 58.9 µM.

Consider `COc1cc(O)c2c(c1C)C(C)(O)c1c(C)coc1C2=O` (centres undefined), for which the result was inactive.

For `CC1OC(OP(=O)(OCc2ccccc2)OCc2ccccc2)C(OC(=O)c2ccccc2)C(OC(=O)c2ccccc2)C1I` (centres undefined), the EC50 was more than 25.1 µM and the IC50 was more than 25.1 µM.

In the case of `N#CC(C(=O)Nc1ccccc1)C1=C(Cl)C(=O)c2ccccc2C1=O` (centres undefined), the EC50 is more than 251 µM and the IC50 stood at 39.8 µM.

Turning to `c1ccc(SCCP(CCP(c2ccccc2)c2ccccc2)c2ccccc2)cc1` (centres undefined), the EC50 was more than 21.9 µM and the IC50 came to 0.355 µM.

On to `CCOc1cc2c(cc1Cc1ccc(OC)cc1)OCO2`, for which the EC50 was more than 91.2 µM and the IC50 turned out to be 0.631 µM.

With `O=C1C=CC2OC(c3ccccc3)C(O)C2O1` (centres undefined), the EC50 is more than 1070 µM and the IC50 was 11.5 µM.

Consider `CO[C@H]1[C@H](O)[C@H](O[C@H]2CC[C@@]3(C)[C@H](CC[C@@H]4[C@@H]3CC[C@]3(C)[C@@H](C5=CC(=O)OC5)CC[C@]43O)C2)O[C@@H](C)[C@@H]1O`, for which the outcome was inactive.

With `COc1cc(/C=C2\CCC(C)C3=C2NC(=S)NC3c2cc(OC)c(OC)c(OC)c2)cc(OC)c1OC` (centres undefined), the EC50 was more than 200 µM and the IC50 came out at 32.4 µM.

Regarding `CCc1nc(N)nc(C(=O)NCCNC(=O)c2nc(N)nc(CC)c2C)c1C`, the EC50 was more than 67.6 µM and the IC50 was more than 67.6 µM.

As for `N=C(N)c1ccc(/C=C/c2ccc(C(=N)N)cc2O)cc1`, the EC50 was more than 1450 µM and the IC50 came out at 55 µM.

On to `S=C1NC2(CCCCC2)NC12CCCCC2`, for which the EC50 is more than 200 µM and the IC50 is more than 200 µM.

For `ClC1OC(Cl)(Cl)C(Cl)(Cl)OC1(Cl)Cl` (centres undefined), the result was inactive.

Consider `Cc1ccc(C2=[N+]([O-])c3ccccc3C2=O)cc1`, for which the result was inactive.

`CN1C(=O)c2ccccc2Sc2ccccc21`: the EC50 was 6.46 µM and the IC50 amounted to 115 µM.

As to `Cc1cc(C#N)c[n+](C)c1`, the EC50 was more than 200 µM and the IC50 was more than 200 µM.

For `CC1(C)OCC(C)(C)C(O)C1=O` (centres undefined), the EC50 was more than 1450 µM and the IC50 came to 977 µM.

Regarding `CC1=N/C(=C\c2ccc(C#N)cc2)C(=O)O1`, the EC50 was more than 123 µM and the IC50 is more than 123 µM.

In the case of `COc1cc(C2c3cc4c(cc3OC3(N5CCCC5)CCCC23)OCO4)cc(OC)c1OC` (centres undefined), the EC50 was more than 550 µM and the IC50 was 2.82 µM.

Consider `Cn1cc2ccccc2c1-c1nc(F)nc(Nc2ccc(N)cc2)n1`, for which the EC50 is more than 15.5 µM and the IC50 was determined as 7.94 µM.

Regarding `OCC1OC(n2cnc3c(Cl)nc(Nc4ccccc4)nc32)CC1O` (centres undefined), the EC50 is more than 200 µM and the IC50 amounted to 28.2 µM.

With `O=c1c(Cc2ccccc2)c(O)n(Cc2nc3ccccc3[nH]2)c(=S)n1-c1ccccc1`, the EC50 was more than 200 µM and the IC50 was more than 200 µM.

Source of the values: PubChem BioAssay AID179 (DTP/NCI, 2004).
